Measured values published in patent US20250129012A1, “ANTI-INFLAMMATORY AND ANALGESIC COMPOUNDS AND USE THEREOF” (JIANGSU ATOM BIOSCIENCE AND PHARMACEUTICAL CO., LTD., priority 2021, published 2025).
Marks after values point to notes of the source that are not given here.

Legend:
Format in all cases: in vivo, SD rats
[1] = tested on: gouty arthritis in rats (urate crystals, left ankle joint); experiment: Pharmacodynamics experiment A on gouty arthritis in rats: pain score; design: Pain score: scale not given here; conditions: 0.6 mg/kg gavage; for Pain versus model group, in words: time points after modeling, P<0.05 or P<0.01; for Pain score: Mean ± SEM
Procedure: (§1) Compounds 2, 17, 26 and 27 were prepared by grinding with 0.5% CMC-Na into a suspension of the corresponding concentration (0.06 mg/mL) for gavage before administration, and the volume of administration was 10 mL/kg. […] Before use, 0.5% CMC-Na was used for grinding and prepared into a suspension of the corresponding concentration (0.06 mg/mL) for gavage, and the volume of drug administered was 10 mL/kg.
(§2) Each group of subjects was prepared into a suspension of the corresponding concentration, and the administration volume was 10 mL/kg.
(§3) The crystalline arthritis model was prepared by intra-articular injection of urate crystals (40 mg/mL, in the left ankle joint of each rat). Different doses of the test drug were given separately by gavage administration. The day of administration was defined as day 1 of the experiment, and the drug was administered once a day for 10 consecutive days (pre-administration of the drug for 7 days prior to modeling, modeling on day 8, and continuation of the drug for 3 days). The experiment ended on day 10.
The pain level was scored using the flexion and extension joint pain test scoring method at the same time point.
(§4) The data obtained from the experiment were statistically analyzed using IBM SPSS Statistics 22.0. All measurements were expressed as Mean±S.E.M s. The data were analyzed using SPSS 22.0 statistical software and variance chi-square test was performed on the parameters.

[2] = tested on: IL-6; experiment: Inflammatory factor experiment A: IL-6 in gouty arthritis rats; conditions: synovial tissue of knee joints; dose 0.6 mg/kg gavage; day 10
Procedure: (§5) Compounds 14, 17 and 26 were prepared by grinding with 0.5% CMC-Na before administration and into a suspension for gavage at the corresponding concentration (0.06 mg/mL), with a dosage volume of 10 mL/kg. Colchicine, purchased from Sun Chemical Technology (Shanghai) Co., Ltd. with batch no. 49ETRRAS, and was prepared by grinding with 0.5% CMC-Na before administration and into a suspension for gavage at the corresponding concentration (0.06 mg/mL), with a dosage volume of 10 mL/kg.
(§6) The compounds in each group were prepared into a suspension of the corresponding concentration, and the dosage volume was 10 mL/kg.
as §3, with “(40 mg/mL” for “(40 mg/mL,”, “test compounds” for “test drug”, “the compounds were” for “the drug was”, “10. […]” for “10.”

[3] = tested on: gouty arthritis in rats (urate crystals, left ankle joint); experiment: Pharmacodynamics experiment A on gouty arthritis in rats: paw volume; conditions: for Paw volume versus model group, in words: time points after modeling; for Paw volume: Mean ± SEM
Procedure: as §1, §2, §3
Paw volume was measured before administration, before urate injection, and 2, 4, 8, 10, 24, and 48 h after injection.
as §4

[4] = tested on: TNF-α; experiment: Inflammatory factor experiment A: TNF-α in gouty arthritis rats; conditions: synovial tissue of knee joints; dose 0.6 mg/kg gavage; day 10
Procedure: as §5, §6
as §3, with “(40 mg/mL” for “(40 mg/mL,”, “test compounds” for “test drug”, “the compounds were” for “the drug was”, “10. […]” for “10.”

[5] = tested on: gouty arthritis in rats (urate crystals, left ankle joint); experiment: Pharmacodynamics experiment A on gouty arthritis in rats: gait score; design: Gait Score: scale not given here; conditions: 0.6 mg/kg gavage; for Gait versus model group, in words: time points after modeling, P<0.05 or P<0.01; for Gait Score: Mean ± SEM
Procedure: as §1, §2, §3
The degree of lameness of the modeled joints was observed and scored at the same time point.
as §4

[6] = 2 h after modeling, 0.6 mg/kg gavage
[7] = 4 h after modeling, 0.6 mg/kg gavage
[8] = 8 h after modeling, 0.6 mg/kg gavage
[9] = 10 h after modeling, 0.6 mg/kg gavage
[10] = 24 h after modeling, 0.6 mg/kg gavage
[11] = 48 h after modeling, 0.6 mg/kg gavage
[12] = before modeling, 0.6 mg/kg gavage once a day

SMILES | Pain versus model group, in words [1] | Pain score ([1]; 2 h after modeling) | Pain score ([1]; 4 h after modeling) | Pain score ([1]; 8 h after modeling) | Pain score ([1]; 10 h after modeling) | Pain score ([1]; 24 h after modeling) | Pain score ([1]; 48 h after modeling) | Pain score ([1]; before modeling) | Decreased IL-6 percentage % [2] | Paw volume versus model group, in words ([3]; 0.6 mg/kg gavage) | Paw volume [3, 6] | Paw volume [3, 7] | Paw volume [3, 8] | Paw volume [3, 9] | Paw volume [3, 10] | Paw volume [3, 11] | Paw volume [3, 12] | Decreased TNF-α percentage % [4] | Gait versus model group, in words [5] | Gait Score ([5]; 2 h after modeling) | other results
COc1cc2c(c(OC)c1OC)-c1cc(C)c(=O)c(OC)cc1[C@@H](NC(C)=O)CC2 [Compound 17, (S)—N-(1,2,3,9-tetramethoxy-11-methyl-10-oxo-5,6,7,10-tetrahydrobenzo[a]heptalen-7-yl)acetamide] | significantly improved gait at 2 h, 8 h, and 24 h | 3.10 ± 0.64 | 3.20 ± 0.66 | 3.00 ± 0.68 | 3.30 ± 0.54 | 1.30 ± 0.65 | 1.60 ± 0.70 | 0.00 ± 0.00 | 132.54% | significantly reduce the paw volume at 2 h, 8 h, 24 h, and 48 h | 2.54 ± 0.02** cm^3 | 2.58 ± 0.02 cm^3 | 2.54 ± 0.04* cm^3 | 2.55 ± 0.03 cm^3 | 2.41 ± 0.05** cm^3 | 2.23 ± 0.03*** cm^3 | 2.19 ± 0.03 cm^3 | 107.16% | significantly improved the gait at 2 h, 8 h, and 24 h | 1.00 ± 0.00 | Gait Score ([5]; 4 h after modeling): 1.20 ± 0.13; Gait Score ([5]; 8 h after modeling): 1.00 ± 0.00; Gait Score ([5]; 10 h after modeling): 1.10 ± 0.10; Gait Score ([5]; 24 h after modeling): 1.10 ± 0.10; Gait Score ([5]; 48 h after modeling): 1.10 ± 0.10; Gait Score ([5]; before modeling): 0.00 ± 0.00
COc1cc2c(c(OC)c1OC)-c1ccc(OC3CCOC3)c(=O)cc1[C@@H](NC(C)=O)CC2 (stereo partly drawn) [Compound 26, (S)—N-(1,2,3-trimethoxy-9-oxo-10-[(tetrahydrofuran-3-yl)oxy]-5,6,7,9-tetrahydrobenzo[a]heptalen-7-yl)acetamide] | significantly improved gait at 2 h | 3.00 ± 0.56 | 2.90 ± 0.67 | 4.30 ± 0.40 | 3.80 ± 0.59 | 3.20 ± 0.51 | 2.20 ± 0.73 | 0.00 ± 0.00 | 113.37% | significantly reduce the paw volume at 2 h, 4 h, and 48 h | 2.53 ± 0.04* cm^3 | 2.54 ± 0.03* cm^3 | 2.55 ± 0.04 cm^3 | 2.57 ± 0.05 cm^3 | 2.47 ± 0.06 cm^3 | 2.34 ± 0.07* cm^3 | 2.19 ± 0.04 cm^3 | 160.36% | significantly improved the gait at 2 h, 8 h, and 24 h | 1.00 ± 0.00 | Gait Score ([5]; 4 h after modeling): 1.10 ± 0.10; Gait Score ([5]; 8 h after modeling): 1.20 ± 0.13; Gait Score ([5]; 10 h after modeling): 1.30 ± 0.15; Gait Score ([5]; 24 h after modeling): 1.10 ± 0.10; Gait Score ([5]; 48 h after modeling): 1.10 ± 0.10; Gait Score ([5]; before modeling): 0.00 ± 0.00
